Experimental data published in paper PMC10018692 (ACS Omega, 2023).
≈ marks a conversion by molar mass, not a printed value.

Legend:
[1] = Drug solubility of free PTL and PTL-loaded nanoparticles; assay type: physicochemical; conditions: phosphate buffer, pH 7.4
[2] = Pharmacokinetic study in albino rats; assay type: in vivo; conditions: 10 mg/kg

- solubility at 24 h [1]: ~4.5 µg/mL (≈ 5.27 µM)
- AUC(0-inf) ([2]; rat, plasma, po): 2980 ± 53.1 ng·h/mL
- AUC(0-t) ([2]; rat, plasma, po): 2830 ± 56.8 ng·h/mL
- Cmax ([2]; rat, plasma, po): 239 ± 26.2 ng/mL
- Tmax ([2]; rat, plasma, po): 2 ± 0.05 h
- half-life ([2]; rat, plasma, po): 8.76 ± 1.1 h
- Kel ([2]; rats): 0.072 ± 0.001
- plasma PTL concentration after 12 h ([2]; rats, HPLC): below the HPLC quantification limit
Compound: CC(=O)O[C@H]1C(=O)[C@@]2(C)[C@H]([C@H](OC(=O)c3ccccc3)[C@]3(O)C[C@H](OC(=O)[C@H](O)[C@@H](NC(=O)c4ccccc4)c4ccccc4)C(C)=C1C3(C)C)[C@]1(OC(C)=O)CO[C@@H]1C[C@@H]2O [PTL, Paclitaxel]
